Where two headings read alike, the source gives them in different places.
Assays:
[1] = In vivo pharmacokinetic study of Sel in plasma and brain; conditions: for AUC(0-t): AUC0–480min; for AUC(0-inf): AUC0–∞; for k el: Kel
Procedure: All animal experiments were conducted in compliance with the guidelines of the ethical committee, Faculty of Pharmacy, University of Sadat City (approval number RERC-FOP-USC-24-02-08). Adult male albino rats (200 g ± 10%) were randomly divided into two groups each of 48 animals. Animals were subjected to anesthesia using sodium thiopental via intraperitoneal injection (IP). […] At each time point, blood samples were collected from 6 animals by cardiac puncture on heparinized tube and then animals were sacrificed. Blood samples were centrifuged at 9000 rpm and the obtained plasma was stored at −80 °C until analysis. The whole brain was isolated, washed with saline, and homogenized at 10,000 rpm in ice-cold PBS (pH 7.4) for 5 min. The homogenate obtained was centrifuged at 9000 rpm for 15 min. Sel concentration in plasma and brain was quantified using LCMS/MS [49, 50]. The maximum drug concentration (Cmax), time required to achieve Cmax (Tmax), area under the concentration-time curve (AUC0–480min and AUC0–∞), mean residence time (MRT), and elimination rate constant (Kel) in both plasma and brain were calculated. All pharmacokinetics data were calculated using the pharmacokinetic software PK Solver-Add Ins for Microsoft Excel 2007. Additionally, absolute bioavailability as well as the Direct-Transport Percentage (DTP%) and Drug-Targeting Efficiency percentage (DTE%) were calculated using the following equations [51]:DTE = (AUCbrain/AUCplasma) IN/(AUCbrain/AUCplasma) IV × 100(2) DTP% = BIN − BX/BIN × 100(3) where BX = BIV/PIV × PIN
BX is the brain AUC0–480min fraction contributed by systemic circulation, following IN administration; BIV is the brain AUC0–480min following IV administration; PIV is the plasma AUC0–480min following IV administration; BIN is the brain AUC0–480min following IN administration; PIN is the plasma AUC0–480min following IN administration.

Parkinson's model rats [2] = test: Paw placement and coverage, rotenone-induced PD rat model; assay type: in vivo; conditions: day 30
Procedure: (§1) PD was simulated in rats by IP injection of rotenone (3 mg/kg/day) for 11 days. […] On day 30 of the experiment, stride length was recorded based on the spatial distance a paw travels during a stride. Animal forepaws were dipped in black non-toxic ink. The length of forelimb and hindlimb steps in the left and right limbs were measured while walking on a clean piece of paper. Stride length was defined as the distance between each step on the same side of the animal’s body, measured from the mid-digit toe of the first step to the heel of the second.
On day 30, the distance between the location of the behind paw and the previously placed contralateral front paw was measured during the same step cycle while the area covered when the forelimbs or hindlimbs perform a stride was recorded as the coverage area.

Parkinson's model rats [3] = test: Open field test, rotenone-induced PD rat model; assay type: in vivo; conditions: 60-minute observation
Procedure: as §1
An open-field device with 16 sub-squares (40 × 40 × 30 cm; Accuscan Instruments, Columbus, OH, USA) was utilized to examine forelimb and hindlimb locomotor impairments in rats following 30 days of PD induction. Prior to the test, each rat was left in its home cage in the testing area for 2 h before being gently carried by the base of its tail to the center of the open field arena. The animal behavior was then studied for 60 min. To measure the rat’s ambulatory distance, the total number of squares crossed was recorded. Additionally, one of the non-motor characteristics of PD that has been investigated is anxiety, which is indexed by the preference exploration of the open field’s periphery. The number of individuals crossing the center zone was noted.

Parkinson's model rats [4] = test: Stride length measurement, rotenone-induced PD rat model; assay type: in vivo; conditions: day 30
Procedure: as §1

dopamine = assay type: in vivo, rats
Procedure: as §1
(§2) On day 30 of the experiment, rats were scarified and brain tissues were collected. Brain tissues were homogenized as previously described and the concentration of dopamine in the brain homogenate was assessed by HPLC-equipped with a fluorescence detector set at excitation/emission wavelengths of 280/315 nm as described elsewhere. Catalase activity in brain homogenate was measured using colorimetric assay at 570 nm using hydrogen peroxide.

catalase = assay type: in vivo, rats
Procedure: as §1, §2

Parkinson's model rats [5] = test: Catalepsy test (bar method), rotenone-induced PD rat model; assay type: in vivo; conditions: scale 0 to 5
Procedure: as §1
The catalepsy score was determined using the bar method, which involved measuring the time that rat consumed to remove its forepaws from the rod. The rats were rated on a five-point scale: 0 (0–5 s), 1 (6–15 s), 2 (16–25 s), 3 (26–35 s), 4 (36–60 s), and 5 (>60 s). The rat’s forepaws were gently put on a steel rod positioned 10 cm above the bench. The recording begins when cataleptic animals have been held in this position for at least 30 s (the adapting time).

MAO-B = assay type: in vivo, rats; conditions: rotenone 3 mg/kg/day IP 11 days; treatment days 12 and 20; day 30; ELISA
[6] = male, albino, rat, in vivo, iv, 1 mg/kg
[7] = male, albino, rat, in vivo, iv, 1 mg/kg, brain, rat brain, Sel 1 mg/kg, route as in label
[8] = male, albino, rat, in vivo, iv, 1 mg/kg, plasma, rat plasma, Sel 1 mg/kg, route as in label
[9] = rotenone 3 mg/kg/day IP 11 days, treatment days 12 and 20, day 30, mean ± SE (n = 6)

C#CCN(C)[C@H](C)Cc1ccccc1 [IV Sel solution, Selegiline]
Tmax [1, 6]: 0.5 h
bioavailability [1, 6]: 100%
AUC(0-t) [1, 7]: 850 ± 60 ng·h/mL
AUC(0-t) [1, 8]: 1160 ± 90 ng·h/mL
AUC(0-inf) [1, 7]: 1220 ± 150 ng·h/mL
AUC(0-inf) [1, 8]: 1540 ± 210 ng·h/mL
k el [1, 7]: 4.44e-05 s⁻¹
k el [1, 8]: 4.72e-05 s⁻¹
MRT [1, 7]: 4.56 ± 0.75 h
MRT [1, 8]: 4.22 ± 0.84 h
Cmax, brain ([1]; rat brain, Sel 1 mg/kg, route as in label): 210 ± 30 ng/mL
Paw placement, left side (Parkinson's model rats [2]): 12 ± 0.57 mm
Paw placement, right side (Parkinson's model rats [2]): 11.66 ± 1.05 mm
Number of center crossings (Parkinson's model rats [3]): 8.33 ± 1.49
Stride length, left forelimb (Parkinson's model rats [4]): 119.5 ± 2.66 mm
Dopamine concentration in brain tissue (dopamine; rat, in vivo): 125.33 ± 3.71 ng/g
Catalase activity in brain tissue (catalase; rat, in vivo): 24 ± 0.82 U/mg protein
Catalepsy score (Parkinson's model rats [5]): 2.11 ± 0.11

C=C(C)[C@H]1Cc2c(ccc3c2O[C@@H]2COc4cc(OC)c(OC)cc4[C@@H]2C3=O)O1 [rotenone]
MAO-B level in brain tissue (MAO-B): 256.33 ± 25.6 ng/g
Paw placement, left side (Parkinson's model rats [2]): 24.66 ± 2.02 mm
Paw placement, right side (Parkinson's model rats [2]): 30.33 ± 2.95 mm
Number of center crossings (Parkinson's model rats [3]): 3.00 ± 1.91
Stride length, left forelimb (Parkinson's model rats [4]): 102 ± 4.2 mm
Dopamine concentration in brain tissue (dopamine; [9]): 49.66 ± 3.23 ng/g
Catalase activity in brain tissue (catalase; [9]): 12 ± 0.85 U/mg protein
Catalepsy score (Parkinson's model rats [5]): 4.78 ± 0.17
